Data published in US12583817B2, “Ionizable lipids and compositions and uses thereof” (Massachusetts Institute of Technology, priority 2021, dated 2026).
Entries after “also recorded” stand apart in the source; their conditions may differ.

What was measured:
[1] = Toxicity study after repeat nebulized dosing (weight, serum ALT/AST); assay type: in vivo, mice; settings: repeated nebulized delivery
Description: (FIG. 6A). […] To determine whether the protein expression in the lung could be controlled by nebulized dose, a dose-response study of the three LNPs was performed, whereby mice were nebulized with 0.25, 0.5, or 1 mg of mRNA. For all three LNPs, there was an increase in lung luminescence corresponding to increasing dose (FIG. 14A). […] For mRNA protein-replacement therapies to treat pulmonary diseases like cystic fibrosis, repeat dosing of the therapeutic will be required unless genome editing is possible. Therefore, the ability to repeat-dose nebulized LNPs was characterized by administration of 1 mg of FFL mRNA every 72 h, with measurement of lung luminescence 6 h after each nebulization. For all LNPs, no loss in lung luminescence was observed over the course of the three administrations (FIG. 6B). Additionally, repeated delivery of the nebulized LNPs was well tolerated as evidenced by the lack of weight loss (FIG. 27) and normal liver enzyme levels (FIG. 14B) in mice.
Toxicity study, 48 h after the third nebulization of FFL mRNA in the repeat dosing study, mice were bled and sera was isolated using microcentrifugation in BD SST microtainers. Serum was analyzed for ALT and AST levels (Custom lipid panel 62149, IDEXX Bioanalytics).

[2] = test system: ALI cultures derived from primary human bronchial epithelial cells; settings: for mRNA delivery in small and large airway ALI cultures, lipids and tail/headgroup variants: handmixed LNPs, not nebulized; for mRNA delivery to small airway ALI cultures: screen of 12 top-performing A549 LNPs
Description: Air-liquid interface (ALI) cultures derived from primary human bronchial epithelial cells were selected. ALI cultures are grown on porous Transwell inserts such that, upon reaching confluence, media can be removed from the top (apical) side of the insert and the cells can be fed from the bottom, basolateral, side (FIG. 12A). This enables recapitulation of the conditions of the native bronchial epithelium, where the apical side of the cells is exposed to the air while the basolateral side is bathed in nutrients.
Primary large airway cells (University of North Carolina at Chapel Hill MLI Tissue Procurement and Cell Culture Core) and primary small airway cells (ATCC) were expanded using PneumaCult-ExPlus (StemCell) according to the instructions for the media and plated for ALI cultures at P3 and P4 respectively.
ALI cultures were plated either onto 0.4 μm pore, 6.5 mm diameter PET Transwell inserts for 24-well plates (Corning) or 0.4 μm pore polycarbonate inserts for 96-well plates (Corning). The 24-well plates were used for histology, the two-week transfection timecourse, and TEER measurements; 96-well plates were used for all other experiments, 33,000 cells/well were seeded in the 24 well inserts and 15,000 cells/well were seeded in the 96-well plate inserts.
Per manufacturer instructions, cultures were grown to confluence with both apical and basolateral (ExPlus) media for 2-4 days before airlift. […] Upon airlift, apical media was removed and basolateral media was changed to PneumaCult-ALI (for large airway cells) or ALI-S (for small airway cells) media (StemCell). […] Media was changed 3 times/week and cells were not transfected until at least 20 days of ALI culture.
In vitro transfection experiments. […] The next day. […] For ALI cultures.

nose = test: Nebulized FFL mRNA delivery to mice, luminescence in nose; assay type: in vivo
mouse lung = test: Nebulized FFL mRNA delivery to mice, lung bioluminescence (IVIS); assay type: in vivo, C57BL/6 mice; settings: for Nebulized lung delivery compared between lipids/NPs: 1 mg dose via nose cone, 6 hr, T1-5 formulated with bPEG20K and NaAc; for In vivo performance via nebulization vs C12-200: 1 mg mRNA dose (FIG. 6A); for Nebulized delivery in NaAc buffer with bPEG20K vs PBS with no excipient: T1-5 LNPs
Description: In vivo nebulized delivery. In vivo nebulized delivery of mRNA to C57BL/6 mice (Jackson Laboratory) was performed either in a whole-body exposure chamber or a nose-only exposure chamber (CH Technologies) where specified. LNPs at 0.3 mg/mL of mRNA were loaded into the nebulizer at required volumes with 2% w/v excipients where specified. For the whole-body exposure chamber, the nebulizer was connected to the chamber via a tee and an oxygen flow rate of 15 SCFH was used to direct aerosol into the chamber. For the nose-only exposure chamber, mice were immobilized in restrainers and the restrainers connected to the chamber. A flow rate of 2 SLPM of oxygen was used and pressure within the chamber was maintained at −0.1 din. H2O.
In vivo bioluminescence, 6 h after nebulization, unless otherwise noted, mice were injected intraperitoneally with 0.2 ml XenoLight D-luciferin (10 mg/mL in DPBS, PerkinElmer). For whole-body imaging, mice were anesthetized in a ventilated anesthesia chamber with 2.5% isofluorane in oxygen and imaged 10 min after luciferin injection. Otherwise, mice were sacrificed 10 min after luciferin injection and organs were collected for imaging. Luminescence was measured with an in vivo imaging system (IVIS, PerkinElmer) and quantified using the Living Image software (PerkinElmer).

lung epithelium = test: Nebulized Cre mRNA delivery to Ai14 mice, histology count of tdTomato+ airway cells
[3] = LNP size by DLS before and after nebulization; assay type: physicochemical; settings: nebulized in the presence of bPEG20K and NaAc buffer
Description: Nebulization of nanoparticles. For characterizing effects of nebulization on LNP size, encapsulation efficiency, and transfection efficiency, 100 uL of LNPs at 150 ng/uL were loaded into an Aeroneb vibrating mesh nebulizer (Aerogen) and nebulized into 1.5 mL microcentrifuge tubes. Where specified, 2% w/v of excipients were added to the LNP formulation following dialysis and immediately prior to nebulization.

A549 cells = test: In vitro FFL mRNA transfection of A549 cells (Bright-Glo); settings: microfluidically mixed, nebulized with bPEG20K and NaAc
[4] = Cre mRNA nebulized over 3 doses
[5] = all cells, Cre mRNA nebulized over 3 doses
[6] = nebulized, 1 mg dose, nose cone

Row | Structure (SMILES) | Tolerability of nebulized LNPs [1] | mRNA delivery in small and large airway ALI cultures, lipids and tail/headgroup variants [2] | mRNA delivery to small airway ALI cultures [2] | Protein expression / mRNA delivery in the nose (nose) | Nebulized lung delivery compared between lipids/NPs (mouse lung) | In vivo performance via nebulization vs C12-200 (mouse lung) | Nebulized delivery in NaAc buffer with bPEG20K vs PBS with no excipient (mouse lung) | Small airways with at least 1 transfected cell (lung epithelium; 140/151 airways) | Club cells transfected, large airway (lung epithelium; [4]) | Club cells transfected, small airway (lung epithelium; [4]) | Transfection of large airway cells (average) (lung epithelium; [5]) | Transfection of small airway cells (average) (lung epithelium; [5]) | Transfection of individual stretches of airway (lung epithelium; some stretches) | Average diameter after nebulization [3] | FFL delivery to A549 cells, post-nebulized LNPs (A549 cells) | Lung luminescence (mouse lung; 6 hr after 1 mg dose via nose cone, lipids T1-5 formulated with bPEG20K and NaAc) | Fold improvement of IR-117-17 lung mRNA delivery over NLD1 (mouse lung; [6]) | Improvement of IR-117-17 lung mRNA delivery over polymeric PBAE nanoparticle (mouse lung; [6])
1 | CCCCCCCC/C=C\CCCCCCCC(=O)OCCCCCC(O)C(CCCCOC(=O)CCCCCCC/C=C\CCCCCCCC)CN(C)CCCn1cccn1 (stereo not drawn) [IR-19-Py, 5-(((3-(1H-pyrazol-1-yl)propyl)(methyl)amino)methyl)-6-hydroxyundecane-1,11-diyl dioleate] | no apparent toxicity | outperformed other screened lipids in ALI cultures | excellent performance | significantly outperform state-of-the-art mRNA delivery formulations; also recorded: particularly high and extended protein expression was observed in the nose | statistically comparable delivery to C12-200 | performed comparably to C12-200 | improves nebulized delivery of both LNPs compared to PBS | – | – | – | – | – | – | – | – | – | – | –
2 | CCCCC/C=C\C/C=C\CCCCCCCC(=O)OCCCCCC(O)C(CCCCOC(=O)CCCCCCC/C=C\C/C=C\CCCCC)CNCCCN(CCCC)CCCC (stereo not drawn) [IR-117-17, 5-(((3-(dibutylamino)propyl)amino)methyl)-6-hydroxyundecane-1,11-diyl (9Z,9′Z,12Z,12′Z)-bis(octadeca-9,12-dienoate)] | no apparent toxicity | outperformed other screened lipids in ALI cultures | excellent performance | – | significantly outperform state-of-the-art mRNA delivery formulations; also recorded: significantly outperformed C12-200 | outperformed C12-200 | improves nebulized delivery of both LNPs compared to PBS | 93% | 8.4% | 7.6% | 10.3% | 8.8% | near-complete transfection | 116 nm | effective | 1.1×10^6 p s^−1 cm^−2 sr^−1 | 300 fold | twofold; also recorded: two-fold
